One assay deals with Ramos cells. The experiment in a line: Inhibition of B-cell activation, B cell FLIPR assay in Ramos cells (anti-IgM stimulated calcium increase). Type of assay: cell-based. Conditions: Homo sapiens, anti-IgM stimulated Ca2+ signaling. An excerpt: Inhibition of B-Cell Activation—B Cell FLIPR Assay in Ramos Cells
The B cell FLIPR assay is a cell based functional method of determining the effect of potential inhibitors of the intracellular calcium increase from stimulation by an anti-IgM antibody. Ramos cells (human Burkitt's lymphoma cell line. ATCC-No. CRL-1596) were cultivated in Growth Media (described below). One day prior to assay, Ramos cells were resuspended in fresh growth media (same as above) and set at a concentration of 0.5×10^6/mL in tissue culture flasks. On day of assay, cells are counted and set at a concentration of 1×10^6/mLl in growth media supplemented with 1 μM FLUO-3AM (TefLabs Cat-No. 0116, prepared in anhydrous DMSO and 10% Pluronic acid) in a tissue culture flask, and incubated at 37° C. (4% CO2) for one h. To remove extracellular dye, cells were collected by centrifugation (5 min, 1000 rpm), resuspended in FLIPR buffer (described below) at 1×10^6 cells/mL and then dispensed into 96-well poly-D-lysine coated black/clear plates (BD Cat-No. 356692) at 1×10^5 cells per well. Test compounds were added at various concentrations ranging from 100 μM to 0.03 μM (7 concentrations, details below), and allowed to incubate with cells for 30 min at RT. Ramos cell Ca^2+ signaling was stimulated by the addition of 10 μg/mL anti-IgM (Southern Biotech, Cat-No. 2020-01) and measured on a FLIPR (Molecular Devices, captures images of 96 well plates using a CCD camera with an argon laser at 480 nm excitation).
Growth Medium: RPMI 1640 medium with L-glutamine (Invitrogen, Cat-No. 61870-010), 10% Fetal Bovine Serum (FBS, Summit Biotechnology Cat-No. FP-100-05); 1 mM Sodium Pyruvate (Invitrogen Cat. No. 11360-070).
FLIPR buffer: HBSS (Invitrogen, Cat-No. 141175-079), 2 mM CaCl2 (Sigma Cat-No. C-4901), HEPES (Invitrogen, Cat-No. 15630-080), 2.5 mM Probenecid (Sigma, Cat-No. P-8761), 0.1% BSA (Sigma, Cat-No. A-7906), 11 mM Glucose (Sigma, Cat-No. G-7528)
Compound Dilution Details:
In order to achieve the highest final assay concentration of 100 μM, 24 μL of 10 mM compound stock solution (made in DMSO) is added directly to 576 μL of FLIPR buffer. The test compounds are diluted in FLIPR Buffer (using Biomek 2000 robotic pipettor) resulting in the following dilution scheme: vehicle, 1.00×10^−4 M, 1.00×10^−5, 3.16×10^−6, 1.00×10^−6, 3.16×10^−7, 1.00×10^−7, 3.16×10^−8.
Intracellular increases in calcium were reported using a max-min statistic (subtracting the resting baseline from the peak caused by addition of the stimulatory antibody using a Molecular Devices FLIPR control and statistic exporting software. The IC50 was determined using a non-linear curve fit (GraphPad Prism software).

The next assay concerns the target Btk (Homo sapiens (Human), UniProt Q06187). Briefly: Bruton's Tyrosine Kinase (Btk) inhibition assay (FRET BTK). Type of assay: biochemical.
Assay [1] deals with B cells in human whole blood (CD69 expression). The experiment in a line: Inhibition of B cell activation in whole blood measured by CD69 expression. Type of assay: cell-based. As to conditions: anti-IgM stimulation, CD69-positive CD20-positive cells. The method, then: Inhibition of B Cell Activation in Whole Blood Measured by CD69 Expression
A procedure to test the ability of Btk inhibitors to suppress B cell receptor-mediated activation of B cells in human blood is as follows:
Human whole blood (HWB) is obtained from healthy volunteers, with the following restrictions: 24 hr drug-free, non-smokers. Blood is collected by venipuncture into Vacutainer tubes anticoagulated with sodium heparin. Test compounds are diluted to ten times the desired starting drug concentration in PBS (20×), followed by three-fold serial dilutions in 10% DMSO in PBS to produce a nine point dose-response curve. 5.5 μl of each compound dilution is added in duplicate to a 2 ml 96-well V bottom plate (Analytical Sales and Services, #59623-23); 5.5 μl of 10% DMSO in PBS is added to control and no-stimulus wells. HWB (100 μl) is added to each well, and after mixing the plates are incubated at 37 C, 5% CO2, 100% humidity for 30 minutes. Goat F(ab′)2 anti-human IgM (Southern Biotech, #2022-14) (10 μl of a 500 μg/ml solution, 50 μg/ml final concentration) is added to each well (except the no-stimulus wells) with mixing and the plates are incubated for an additional 20 hours.
At the end of the 20 hour incubation, samples are incubated with florescent-probe-labeled anti-bodies (15 μl PE Mouse anti-Human CD20, BD Pharmingen, #555623, and/or 20 ul APC Mouse anti-Human CD69, BD Pharmingen #555533) for 30 minutes, at 37 C, 5% CO2, 100% humidity. Included are induced control, unstained and single stains for compensation adjustments and initial voltage settings. Samples are then lysed with 1 ml of 1× Pharmingen Lyse Buffer (BD Pharmingen #555899), and plates are centrifuged at 1800 rpm for 5 minutes. Supernatants are removed via suction and the remaining pellets are lysed again with another 1 ml of 1× Pharmingen Lyse Buffer, and plates are spun down as before. Supernatants are aspirated and remaining pellets are washed in FACs buffer (PBS+1% FBS). After a final spin, the supernantants are removed and pellets are resuspended in 180 μl of FACs buffer. Samples are transferred to a 96 well plate suitable to be run on the HTS 96 well system on the BD LSR II flow cytometer.
Using appropriate excitation and emission wavelengths for the fluorophores used, data are acquired and percent positive cell values are obtained using Cell Quest Software. Results are initially analyzed by FACS analysis software (Flow Jo). […] The IC50 values are calculated using XLfit software version 3, equation 201.

Our source for the IC50 values is patent publication US8729078B2, “Inhibitors of bruton's tyrosine kinase” (Hoffmann-La Roche Inc., priority 2011, dated 2014).

The structures appear in SMILES notation.

Btk, sequence (Q06187 whole entry): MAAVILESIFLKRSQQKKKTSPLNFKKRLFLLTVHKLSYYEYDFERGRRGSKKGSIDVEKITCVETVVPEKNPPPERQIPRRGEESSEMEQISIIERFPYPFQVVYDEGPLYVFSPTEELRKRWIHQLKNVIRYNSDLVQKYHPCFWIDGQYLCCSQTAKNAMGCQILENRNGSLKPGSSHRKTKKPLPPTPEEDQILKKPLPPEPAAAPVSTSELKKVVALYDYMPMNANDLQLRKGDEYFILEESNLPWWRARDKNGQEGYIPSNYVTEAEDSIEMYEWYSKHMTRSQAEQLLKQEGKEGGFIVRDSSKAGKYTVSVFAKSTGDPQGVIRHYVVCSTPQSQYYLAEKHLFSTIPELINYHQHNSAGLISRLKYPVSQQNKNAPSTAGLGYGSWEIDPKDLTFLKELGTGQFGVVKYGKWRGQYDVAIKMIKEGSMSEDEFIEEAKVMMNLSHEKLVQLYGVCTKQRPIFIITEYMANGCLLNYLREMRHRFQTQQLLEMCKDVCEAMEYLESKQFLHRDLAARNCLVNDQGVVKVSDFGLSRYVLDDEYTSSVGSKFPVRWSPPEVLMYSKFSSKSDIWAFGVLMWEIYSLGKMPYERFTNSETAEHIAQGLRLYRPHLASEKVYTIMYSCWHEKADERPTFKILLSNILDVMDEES

For the molecule `CC(C)(C)c1ccc2c(=O)n(-c3cccc(-c4nc(C(N)=O)cs4)c3CO)ncc2c1` [Compound I-2, 2-[3-(6-tert-Butyl-1-oxo-1H-phthalazin-2-yl)-2-hydroxymethyl-phenyl]-thiazole-4-carboxylic acid amide], the results for the IC50 with Ramos cells and at Btk were 1.59 µM and 0.281 µM, respectively.

For `Cn1cc(-c2cccc(-n3ncc4cc(C(C)(C)C)ccc4c3=O)c2CO)nc1C(N)=O` [Compound I-1, 4-[3-(6-tert-Butyl-1-oxo-1H-phthalazin-2-yl)-2-hydroxymethyl-phenyl]-1-methyl-1H-imidazole-2-carboxylic acid amide], the figures for the IC50 in the assay with Ramos cells and at Btk were 11.2 µM and 0.05 µM, respectively.

Take `Cn1cc(-c2ccnc(-n3ncc4cc(C(C)(C)C)cc(F)c4c3=O)c2CO)cc1C(N)=O` [Compound I-16, 4-[2-(6-tert-Butyl-8-fluoro-1-oxo-1H-phthalazin-2-yl)-3-hydroxymethyl-pyridin-4-yl]-1-methyl-1H-pyrrole-2-carboxylic acid amide]: the IC50 – broadly, the concentration that gives 50% inhibition – with Ramos cells came to 0.27 µM; at Btk it was 0.02 µM; in assay [1], 1.43 µM.

As to `CC(C)(C)c1cc(F)c2c(=O)n(-c3cccc(-n4cc(C(N)=O)c5cccnc54)c3CO)ncc2c1` [Compound I-15, 1-[3-(6-tert-Butyl-8-fluoro-1-oxo-1H-phthalazin-2-yl)-2-hydroxymethyl-phenyl]-1H-pyrrolo[2,3-b]pyridine-3-carboxylic acid amide], the results for the IC50 (in the assay on Ramos cells; against Btk; in assay [1]) were 0.04 µM, 0.0032 µM and 0.759 µM, respectively.
